The subject of data set [1] is TNF-α. Nature of the data set: Lipopolysaccharide induced TNF-α production in Balb/cJ mice. It is filed as in vivo. Particulars: Mus musculus, ip, 1.5 h; 10 mg/kg intraperitoneally, 30 min before LPS; 90 min after LPS; read-out: % inhibition of TNF-α production (plasma). The protocol: Male Balb/cJ mice (Iffa Credo, France) weighing 25-33 g were randomly grouped (n=7 in test group, 7 in positive control group, 4 in negative control group). Test compounds, as well as vehicle [0.125% carboxymethyl-cellulose (Sigma, USA)], were administered to the mice intraperitoneally. Test compounds were administered at a dose of 10 mg/kg of body weight, in a volume of 10 mL/kg of body weight. Thirty minutes later, a sterile solution of lipopolysaccharide (LPS) (Sigma, USA) in saline was intraperitoneally administered at a concentration and volume of 25 μg/0.2 mL/mouse to each animal, except those in negative control. Ninety minutes following administration, all animals were sacrificed by puncturing a. carotis communis. The plasma concentration of TNF-α was determined by sandwich ELISA, using capture and detection antibodies (R&D, USA) according to manufacturer's recommendations. Results are presented in the following table as percent of inhibition of TNF-α production in comparison to the positive control (stimulated, but untreated animals).

The next data set relates to Hep G2. Briefly: Cytotoxicity assay (MTT), Hep G2 cell line. The class given is cell-based. Particulars: 24 h. Summed up:
(§1)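 Hep G2 and A549 cells were cultured 24 h at 37° C in RPM medium with test compounds at 50 μM and 12.5 μM. MTT was added for 0.5-2 h and formazan read at 490 nm. Growth value calculated as OD490 treated/OD490 nontreated ×100.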

Data set [2] concerns human peripheral blood mononuclear cells (PBMC). Nature of the data set: Effects on human T-cell proliferation in vitro (3H-thymidine incorporation). It is filed as cell-based. Particulars: Homo sapiens, PBMC, read-out: Percentage of inhibition of proliferation of stimulated PBMC. The method, then: The influence of the various test compounds at two different concentrations (50 μM and 10 μM) on cell proliferation of human peripheral blood mononuclear cells (PBMC) was assessed. […] The cells were pulsed with 1 μCi of ^3H-thymidine (Amersham, USA) per well during the last 18 h of the culture, and were harvested on the 96-well filter (Packard Bioscience, USA) using a multiple cell harvester (Packard, USA). The incorporation of ^3H-thymidine in activated cells were measured using TopCount NXT (Packard, USA). […] The positive control refers to LPS-, PMA- or zymosan-stimulated samples that were not treated with test compounds.
Background: Incorporation of labelled thymidine or its analogues reports DNA synthesis.

In a further data set the test system is A549. Briefly: Cytotoxicity assay (MTT), A549 cell line. It is filed as cell-based. Particulars: 24 h. Summed up:
as §1

The test system of another data set is IL-6. Nature of the data set: Inhibition of IL-6 production by stimulated human peripheral blood leukocytes in vitro. Particulars: Homo sapiens, Leukocyte, read-out: Percentage of inhibition of IL-6 production. The class given is cell-based. Summed up: (§2)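 Compound at 10 or 50 μM, given 2 h ahead of an overnight LPS, PMA or zymosan challenge, was tested on human PBL in RPMI with 10% FCS at 37 °C. Sandwich ELISA quantified supernatant cytokine.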

The test system of data set [3] is TNF-α. Nature of the data set: Inhibition of TNF-α production by stimulated human peripheral blood leukocytes in vitro. The class given is cell-based. Particulars: Homo sapiens, Leukocyte, read-out: Percentage of inhibition of TNF-α production. Summed up:
as §2

The next data set deals with IL-1α. Briefly: Inhibition of IL-1 production by stimulated human peripheral blood leukocytes in vitro. It is filed as cell-based. Particulars: Homo sapiens, Leukocyte, read-out: Percentage of inhibition of IL-1α production.
Another data set relates to IL-8. Nature of the data set: Inhibition of IL-8 production by stimulated human peripheral blood leukocytes in vitro. It is filed as cell-based. Particulars: Homo sapiens, Leukocyte, read-out: Percentage of inhibition of IL-8 production. Summed up: as §2
In data set [4] the test system is granulocytes. The class given is in vitro ADME. Particulars: human, 180 min, 10 μM. The method, then: (§3) Granulocytes were obtained from heparinized whole blood using density gradiant centrifugation. Erythrocytes were sedimented on 3% dextran T-500 (Amersham Pharmacia Biotech AB, Uppsala, Sweden). Leukocytes were centrifuged on Ficoll (Amersham Pharmacia Biotech AB, Uppsala, Sweden) for 35 min at 600 g at 20° C. The pellet of granulocytes was cleared from remaining erythrocytes by a brief hypotonic lysis.
7.5×10^6 granulocytes, isolated as described above, were suspended in 3 mL of RPMI 1640 (Institute of Immunology, Croatia) containing 10 μM of tested macrolide. Samples were incubated at 37° C. for 180 min. Following incubation, the samples were centrifuged through the layer of Poly(dimethylsiloxane-co-diphenylsiloxane), dihydroxy terminated-silicone oil (Aldrich Chemical Company, Milwaukee, USA). The pellet was resuspended in 0.5% Triton X-100 (Sigma, St. Louis, USA) in deionized water (MilliQ, Millipore Corporation, Bedford, USA). The suspension was sonicated, proteins were precipitated with acetonitrile, and the concentration of macrolide in the supernatants was determined by liquid chromatography-mass spectrometry (LC-MS).
Intracellular concentrations of the test compounds were calculated from the mean cell number recovered after centrifuging through silicone oil. According to the literature, about 1 million neutrophils is considered to have a volume of 0.24 μL (Vazifeh et al., Antimicrob Agents Chemo. 1997; 41: 2099-2107). To estimate the extent of macrolide accumulation, the intracellular to extracellular concentration ratio (I/E) was calculated, where E (due to a large volume of incubation medium) was taken as constant (10 μM). Results are expressed relative to azithromycin according to the following equation: % of azithromycin uptake =(I/E of a substance/I/E of azithromycin)×100. I/E values obtained for azithromycin were 164±10.

Data set [5] relates to granulocytes. Briefly: Inhibition of degranulation of granulocytes (free neutrophil elastase activity). The class given is cell-based, human. Particulars: Homo sapiens, Neutrophil, compound 50 μM, read-out: Percentage of inhibition of degranulation of granulocytes. The method, then: as §3
1×10^6 granulocytes, isolated as described above, were resuspended in RPMI-1640 medium (Institute of Immunology, Croatia), and were incubated with 10 or 50 μM of test compound together with cytochalasine B (5 μg/mL) for 2 h at 37° C. Degranulation then was induced by the addition of 0.1 μM fMLP (Sigma, USA) or 0.5 μM A23187 (Calbiochem, USA). The activity of free neutrophil elastase was determined with a chromogenic substrate specific for human neutrophil elastase, such as N-(methoxysuccinyl)-L-alanyl-L-alanyl-L-prolyl-L-valine 4-nitroanilide (Sigma Chemical Company, St Louis, Mo., USA). Elastase activity, as a marker of primary granules, was assessed in supernatant using a spectrophotometer at an absorbance of 405 nm.
Results are expressed as the percent of inhibition of degranulation in unstimulated cells, and in stimulated cells treated with fMLP or A23187.

Read-outs that look alike come from different tables or passages of the source.

For the compound `CC[C@H]1OC(=O)[C@H](C)[C@@H](O[C@H]2C[C@@](C)(OC)[C@@H](OC(=O)CCN3CCN(CCCN(CC)CC)CC3)[C@H](C)O2)[C@H](C)[C@@H](O[C@@H]2O[C@H](C)C[C@H](N(C)C)[C@H]2O)[C@](C)(OC)C[C@@H](C)C(=O)N[C@H](C)[C@@H](O)[C@]1(C)O` [Example 31], in the data set with TNF-α [1], the inhibition in vivo at 10 mg/kg worked out at 92%. The “Percentage of inhibition of cell growth” value in the data set on Hep G2 (12.5 μM), with Hep G2 (50 μM), in the data set with A549 (12.5 μM) and in the data set on A549 (50 μM) was 0% each time. The inhibition at 10 µM worked out at 23% in data set [2] (PHA) and 24% in [2] (PMA + iono.). Besides, the results for the inhibition at 50 µM in [2] (PHA) and in data set [2] (PMA + iono.) were 99% and 91%, respectively.

For `CC[C@H]1OC(=O)[C@H](C)[C@@H](O[C@H]2C[C@@](C)(OC)[C@@H](OCCCN)[C@H](C)O2)[C@H](C)[C@@H](O[C@@H]2O[C@H](C)C[C@H](N(C)C)[C@H]2O)[C@](C)(O)C[C@@H](C)CN(C)[C@H](C)[C@H]2OC(=O)O[C@@]21C` [Example 51C, 11,12-Carbonate-11,12-dideoxy-4″-O-(3-aminopropyl)-azithromycin], the inhibition at 10 µM in the data set with IL-6 (LPS-stimulated PBL) worked out at 4%; in the data set with IL-6 (PMA-stimulated PBL) it was 27%; with IL-6 (zymosan-stimulated PBL), 42%; in the data set on TNF-α [3] (LPS-stimulated PBL), 5%; with TNF-α [3] (PMA-stimulated PBL), 18%; in the data set with TNF-α [3] (zymosan-stimulated PBL), 38%. Besides, the inhibition at 10 µM with IL-1α (LPS-stimulated PBL) turned out to be 2%; in the data set on IL-1α (PMA-stimulated PBL), 0%; in the data set on IL-1α (zymosan-stimulated PBL), 62%; with IL-8 (LPS-stimulated PBL), 0%; in the data set on IL-8 (PMA-stimulated PBL) it was 12%; with IL-8 (zymosan-stimulated PBL), 26%. The inhibition at 50 µM in the data set with IL-6 (LPS-stimulated PBL) was 0%; with IL-6 (PMA-stimulated PBL) it was 6%; with IL-6 (zymosan-stimulated PBL), 0%; in the data set on TNF-α [3] (LPS-stimulated PBL) it was 0%; in the data set with TNF-α [3] (PMA-stimulated PBL), 4%; with TNF-α [3] (zymosan-stimulated PBL) it was 0%. Besides, the inhibition at 50 µM in the data set on IL-1α (LPS-stimulated PBL), in the data set on IL-1α (PMA-stimulated PBL), with IL-1α (zymosan-stimulated PBL), with IL-8 (LPS-stimulated PBL), with IL-8 (PMA-stimulated PBL) and in the data set on IL-8 (zymosan-stimulated PBL) was 0% throughout. Further, the “Percentage of inhibition of cell growth” value worked out at 15% in the data set on Hep G2 (12.5 μM), 7% in the data set with Hep G2 (50 μM), 0% in the data set with A549 (12.5 μM) and 0% in the data set with A549 (50 μM). For the same compound, the “Uptake (% azithromycin)” value with granulocytes [4] is reported as 122 % azithromycin.

`CC[C@H]1OC(=O)[C@H](C)[C@@H](O[C@H]2C[C@@](C)(OC)[C@@H](O)[C@H](C)O2)[C@H](C)[C@@H](O[C@@H]2O[C@H](C)C[C@H](N(C)C)[C@H]2O)[C@](C)(O)C[C@@H](C)C(=O)[C@H](C)[C@@H](O)[C@]1(C)O` [erythromycin, reference compound]: the inhibition at 50 µM with granulocytes [5] (A23187 0.5 μM) amounted to 0%; in the data set with granulocytes [5] (fMLP 0.1 μM), 23%.

(Values after US8080529B2, “Macrolides with anti-inflammatory activity” (Glaxo Group Limited, priority 2005, dated 2011).)
